Assay results reported in patent publication US4308256A, “Method of inducing analgesia” (American Home Products Corporation, priority 1980, dated 1981).

Tested on: male Charles River rats
Assay: D'Amour-Smith rat tail-flick procedure (radiant heat, 8 second cut-off), intraventricular injection
Assay type: in vivo
Method: Intraventricular cannulae, made of 27-gauge stainless steel tubing, are implanted in 300-400 g. male Charles River rats under pentobarbital anesthesia. After a recovery period of at least one week, the rats are restrained in a wire-mesh cylindrical chamber so that the tip of the tail can be positioned at the focal point of a radiant heat source. After an acclimatistation period of 5 minutes, the lamp is turned on and an electric clock activated. Movement of the tip of the tail exposes a photocell to the lamp, which turns off the thermal stimulus and stops the clock. If a rat fails to move its tail within 8 seconds, the heat is automatically turned off to prevent blistering. The intensity of the lamp is adjusted in each case to produce at least three baseline tail-flick latencies of 2.5-4.5 seconds. Tests are initially made every 2 minutes, then every 5 minutes and finally every 15 minutes.
Initially, using the above outlined procedure, the effects of intraventricularly administered leucine-enkephalin are tested in rats according to the above procedure.
The rat tail flick procedure is repeated, first by the simultaneous intraventricular injection of both leucine-enkephalin and bestatin and then by the initial injection of bestatin followed one hour later by the injection of leucine-enkephalin.
The above procedure is repeated again, however, the bestatin is administered first and then one hour later the leucine-enkephalin is administered.
The effects of bestatin alone are tested in rats according to the rat tail flick procedure.

Work on CC(C)C[C@H](NC(=O)[C@@H](O)[C@H](N)Cc1ccccc1)C(=O)O [bestatin, [(2S,3R)-3-amino-2-hydroxy-4-phenylbutanoyl]-L-leucine] yielded a Tail-flick latency (200 μg bestatin alone into lateral ventricle, Rat 1, 2 min) of 4.92 s, a Tail-flick latency (200 μg bestatin alone into lateral ventricle, Rat 1, 4 min) of 7.36 s and a Tail-flick latency (200 μg bestatin into lateral ventricle, 200 μg leucine-enkephalin one hour later, 1 rat, 2 min after leucine-enkephalin) of 8.00 s. For the same molecule, the Tail-flick latency (200 μg bestatin into lateral ventricle, 200 μg leucine-enkephalin one hour later, 1 rat, 4 min after leucine-enkephalin) was 8.00 s, the Tail-flick latency (200 μg bestatin into lateral ventricle, 200 μg leucine-enkephalin one hour later, 1 rat, 6 min after leucine-enkephalin) was 8.00 s and the Tail-flick latency (200 μg bestatin into lateral ventricle, 200 μg leucine-enkephalin one hour later, 1 rat, 8 min after leucine-enkephalin) was 8.00 s. It also gave a Tail-flick latency (200 μg bestatin into lateral ventricle, 200 μg leucine-enkephalin one hour later, 1 rat, 10 min after leucine-enkephalin) of 8.00 s, a Tail-flick latency (200 μg bestatin into lateral ventricle, 200 μg leucine-enkephalin one hour later, 1 rat, 12 min after leucine-enkephalin) of 8.00 s and a Tail-flick latency (200 μg bestatin into lateral ventricle, 200 μg leucine-enkephalin one hour later, 1 rat, 14 min after leucine-enkephalin) of 8.00 s. The Tail-flick latency (200 μg bestatin into lateral ventricle, 200 μg leucine-enkephalin one hour later, 1 rat, 19 min after leucine-enkephalin) was 8.00 s, the Tail-flick latency (200 μg bestatin into lateral ventricle, 200 μg leucine-enkephalin one hour later, 1 rat, 24 min after leucine-enkephalin) was 8.00 s and the Tail-flick latency (200 μg bestatin into lateral ventricle, 200 μg leucine-enkephalin one hour later, 1 rat, 29 min after leucine-enkephalin) was 8.00 s. For the same molecule, the Tail-flick latency (200 μg bestatin into lateral ventricle, 200 μg leucine-enkephalin one hour later, 1 rat, 34 min after leucine-enkephalin) was 8.00 s, the Tail-flick latency (200 μg bestatin into lateral ventricle, 200 μg leucine-enkephalin one hour later, 1 rat, 53 min after leucine-enkephalin) was 8.00 s and the Tail-flick latency (200 μg bestatin into lateral ventricle, 200 μg leucine-enkephalin one hour later, 1 rat, 58 min after leucine-enkephalin) was 8.00 s. For the same molecule, the Tail-flick latency (200 μg bestatin into lateral ventricle, 200 μg leucine-enkephalin one hour later, 1 rat, 63 min after leucine-enkephalin) was 6.07 s, the Tail-flick latency (200 μg bestatin into lateral ventricle, 200 μg leucine-enkephalin one hour later, 1 rat, 68 min after leucine-enkephalin) was 2.62 s and the Tail-flick latency (200 μg leucine-enkephalin + 200 μg bestatin injected together into lateral ventricle, 1 rat, 2 min) was 4.21 s. It also gave a Tail-flick latency (200 μg leucine-enkephalin + 200 μg bestatin injected together into lateral ventricle, 1 rat, 4 min) of 5.75 s, a Tail-flick latency (200 μg leucine-enkephalin + 200 μg bestatin injected together into lateral ventricle, 1 rat, 8 min) of 8.00 s and a Tail-flick latency (200 μg leucine-enkephalin + 200 μg bestatin injected together into lateral ventricle, 1 rat, 10 min) of 8.00 s. It also gave a Tail-flick latency (200 μg leucine-enkephalin + 200 μg bestatin injected together into lateral ventricle, 1 rat, 12 min) of 8.00 s, a Tail-flick latency (200 μg leucine-enkephalin + 200 μg bestatin injected together into lateral ventricle, 1 rat, 14 min) of 8.00 s and a Tail-flick latency (200 μg leucine-enkephalin + 200 μg bestatin injected together into lateral ventricle, 1 rat, 19 min) of 8.00 s. It also gave a Tail-flick latency (200 μg leucine-enkephalin + 200 μg bestatin injected together into lateral ventricle, 1 rat, 24 min) of 8.00 s, a Tail-flick latency (200 μg leucine-enkephalin + 200 μg bestatin injected together into lateral ventricle, 1 rat, 29 min) of 8.00 s and a Tail-flick latency (200 μg leucine-enkephalin + 200 μg bestatin injected together into lateral ventricle, 1 rat, 34 min) of 8.00 s. The Tail-flick latency (200 μg leucine-enkephalin + 200 μg bestatin injected together into lateral ventricle, 1 rat, 39 min) was 8.00 s, the Tail-flick latency (200 μg leucine-enkephalin + 200 μg bestatin injected together into lateral ventricle, 1 rat, 53 min) was 8.00 s and the Tail-flick latency (200 μg leucine-enkephalin + 200 μg bestatin injected together into lateral ventricle, 1 rat, 58 min) was 8.00 s. For the same molecule, the Tail-flick latency (200 μg leucine-enkephalin + 200 μg bestatin injected together into lateral ventricle, 1 rat, 63 min) was 4.65 s, the Tail-flick latency (200 μg leucine-enkephalin + 200 μg bestatin injected together into lateral ventricle, 1 rat, 68 min) was 8.00 s and the Tail-flick latency (200 μg leucine-enkephalin + 200 μg bestatin injected together into lateral ventricle, 1 rat, 73 min) was 4.95 s. The Tail-flick latency (200 μg leucine-enkephalin + 200 μg bestatin injected together into lateral ventricle, 1 rat, 78 min) was 2.10 s, the “Analgesia induced by bestatin alone” value (200 μg level, lateral ventricle, rat) was “does not appear to induce any clearcut analgesia” and the Tail-flick latency (400 μg bestatin alone into lateral ventricle, Rat 1, 210 min) was 8.00 s. For the same molecule, the Tail-flick latency (400 μg bestatin alone into lateral ventricle, Rat 1, 225 min) was 8.00 s, the Tail-flick latency (400 μg bestatin alone into lateral ventricle, Rat 1, 240 min) was 8.00 s and the Tail-flick latency (400 μg bestatin alone into lateral ventricle, Rat 1, 255 min) was 4.71 s. The Tail-flick latency (400 μg bestatin alone into lateral ventricle, Rat 2, 2 min) was 2.16 s, the Tail-flick latency (400 μg bestatin alone into lateral ventricle, Rat 2, 4 min) was 5.40 s and the Tail-flick latency (400 μg bestatin alone into lateral ventricle, Rat 2, 6 min) was 4.62 s. It also gave a Tail-flick latency (400 μg bestatin alone into lateral ventricle, Rat 2, 8 min) of 6.51 s, a Tail-flick latency (400 μg bestatin alone into lateral ventricle, Rat 2, 10 min) of 8.00 s and a Tail-flick latency (400 μg bestatin alone into lateral ventricle, Rat 2, 12 min) of 8.00 s. For the same molecule, the Tail-flick latency (400 μg bestatin alone into lateral ventricle, Rat 2, 14 min) was 8.00 s, the Tail-flick latency (400 μg bestatin alone into lateral ventricle, Rat 2, 16 min) was 8.00 s and the Tail-flick latency (400 μg bestatin alone into lateral ventricle, Rat 2, 18 min) was 8.00 s. It also gave a Tail-flick latency (400 μg bestatin alone into lateral ventricle, Rat 2, 20 min) of 8.00 s, a Tail-flick latency (400 μg bestatin alone into lateral ventricle, Rat 2, 22 min) of 8.00 s and a Tail-flick latency (400 μg bestatin alone into lateral ventricle, Rat 2, 24 min) of 8.00 s. The Tail-flick latency (400 μg bestatin alone into lateral ventricle, Rat 2, 26 min) was 8.00 s and the Tail-flick latency (400 μg bestatin alone into lateral ventricle, Rat 2, 28 min) was 8.00 s.
